This assay concerns clinically isolated M. tuberculosis. Briefly: microbe, parasite or virus in culture. Format: cell-based.

The record followed here is PMC1664607 (PLoS Medicine, 2006).

Several values for one entry are separate records, joined by “and”; a condition that tells them apart may be missing. Identical values can stand only once.

For `C[C@]1(COc2ccc(N3CCC(Oc4ccc(OC(F)(F)F)cc4)CC3)cc2)Cn2cc([N+](=O)[O-])nc2O1` [OPC-67683, (R)-2-methyl-6-nitro-2-(4-[4-(4-trifluoromethoxyphenoxy)piperidin-1-yl]phenoxymethyl}-2,3-dihydroimidazo[2,1-b]oxazole], the “Cross-resistance with the currently used anti-TB drugs” value is listed as “no cross-resistance”; the MIC90 is 0.0134 µg/mL and 0.01221 µg/mL and 0.01279 µg/mL and 0.01341 µg/mL.
